ChEMBL document CHEMBL1126522, “Indolocarbazoles. 1. Total synthesis and protein kinase inhibiting characteristics of compounds related to K-252c” (Bioorg Med Chem Lett, 1993)

molecular target: cAMP-dependent protein kinase (PKA) (Homo sapiens, UniProt P22694+P17612+P22612); assay: Inhibition of cAMP-dependent protein kinase (PKA); type: protein assay

Row | IC50 | Compound
1 | 18.5 nM | O=C1NC(=O)c2c1c1c3ccccc3n3c1c1c2c2ccccc2n1[C@@H]1O[C@H]3C[C@@H]1CO

molecular target: Receptor tyrosine-protein kinase erbB-2 (Homo sapiens, UniProt P04626); assay: Inhibition of neu (erb-B2) HER2 kinase
Sequence (P04626 whole entry): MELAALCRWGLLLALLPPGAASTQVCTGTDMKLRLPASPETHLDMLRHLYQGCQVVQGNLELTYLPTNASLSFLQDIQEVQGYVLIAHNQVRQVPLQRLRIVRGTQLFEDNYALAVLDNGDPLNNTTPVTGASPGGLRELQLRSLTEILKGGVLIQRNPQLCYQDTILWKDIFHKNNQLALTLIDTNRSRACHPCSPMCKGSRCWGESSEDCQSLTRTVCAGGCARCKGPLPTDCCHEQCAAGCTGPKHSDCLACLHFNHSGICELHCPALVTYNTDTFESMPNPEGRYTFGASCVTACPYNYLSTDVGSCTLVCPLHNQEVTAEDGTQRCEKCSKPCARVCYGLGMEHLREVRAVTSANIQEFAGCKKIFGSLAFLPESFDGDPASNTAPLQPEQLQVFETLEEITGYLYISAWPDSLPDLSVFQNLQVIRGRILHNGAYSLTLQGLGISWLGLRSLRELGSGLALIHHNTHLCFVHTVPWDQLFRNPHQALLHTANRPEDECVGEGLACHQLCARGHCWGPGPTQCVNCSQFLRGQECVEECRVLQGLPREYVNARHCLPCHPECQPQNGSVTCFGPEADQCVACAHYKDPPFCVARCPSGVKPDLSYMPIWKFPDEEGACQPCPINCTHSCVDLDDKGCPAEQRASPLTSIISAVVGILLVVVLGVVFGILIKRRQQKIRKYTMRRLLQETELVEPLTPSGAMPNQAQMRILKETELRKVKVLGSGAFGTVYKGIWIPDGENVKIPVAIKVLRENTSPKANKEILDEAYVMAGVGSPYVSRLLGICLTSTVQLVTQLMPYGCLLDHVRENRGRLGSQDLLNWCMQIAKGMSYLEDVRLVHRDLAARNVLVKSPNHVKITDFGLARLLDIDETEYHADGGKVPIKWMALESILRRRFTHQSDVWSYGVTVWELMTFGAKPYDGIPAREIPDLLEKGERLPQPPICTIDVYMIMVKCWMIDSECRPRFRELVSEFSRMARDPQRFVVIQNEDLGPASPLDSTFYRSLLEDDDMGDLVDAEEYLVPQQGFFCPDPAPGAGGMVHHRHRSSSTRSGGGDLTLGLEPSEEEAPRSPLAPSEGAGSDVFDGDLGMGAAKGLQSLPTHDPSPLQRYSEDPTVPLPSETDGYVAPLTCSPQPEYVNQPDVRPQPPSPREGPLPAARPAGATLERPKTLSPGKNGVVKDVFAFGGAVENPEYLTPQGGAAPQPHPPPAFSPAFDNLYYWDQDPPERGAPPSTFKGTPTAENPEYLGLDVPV

Row | IC50 | Compound
2 | 250 nM | O=C1NC(=O)c2c1c1c3ccccc3n3c1c1c2c2ccccc2n1[C@@H]1O[C@H]3C[C@@H]1CO

molecular target: Protein kinase C (PKC) (Rattus norvegicus) (UniProt P05696+P68403+P09216+P63319+P09215+Q64617+Q9WTQ0+P09217); assay: Inhibition of partially purified rat brain protein kinase C

Row | Compound | Inhibition
3 | NC1=NC(=O)c2c1c1c3ccccc3n3c1c1c2c2ccccc2n1[C@@H]1CC[C@H]3O1 | 13 nM
4 | S=C1NC(=S)c2c1c1c3ccccc3n3c1c1c2c2ccccc2n1[C@H]1CC[C@@H]3O1 | 42 nM
5 | O=C1NC(=O)c2c1c1c3ccccc3n3c1c1c2c2ccccc2n1[C@@H]1O[C@H]3C[C@@]1(O)C(=O)O | 6 nM
6 | O=C1NC(=O)c2c1c1c3ccccc3n3c1c1c2c2ccccc2n1[C@H]1CC[C@@H]3O1 | 19 nM
7 | O=C1NC(=O)c2c1c1c3ccccc3n3c1c1c2c2ccccc2n1[C@@H]1O[C@H]3C[C@H]1C(=O)O | 20 nM
8 | O=C1NCc2c1c1c3ccccc3n3c1c1c2c2ccccc2n1[C@H]1CC[C@@H]3O1 | 18 nM
9 | O=C1NC(O)c2c1c1c3ccccc3n3c1c1c2c2ccccc2n1[C@H]1CC[C@@H]3O1 (stereo partly drawn) | 50 nM

Second part, the compound after the results:

Row | Inhibition | Compound
10 | > 5000 nM | CN1C(=O)c2c(c3c4ccccc4n4c3c3c2c2ccccc2n3[C@@H]2CC[C@H]4O2)C1=O
11 | 2.4 nM | O=C1NC(=O)c2c1c1c3ccccc3n3c1c1c2c2ccccc2n1[C@@H]1O[C@H]3C[C@H]1CO
12 | 5 nM | C=C1C[C@@H]2O[C@H]1n1c3ccccc3c3c4c(c5c6ccccc6n2c5c31)C(=O)NC4=O
13 | > 5000 nM | NN1C(=O)c2c(c3c4ccccc4n4c3c3c2c2ccccc2n3[C@@H]2CC[C@H]4O2)C1=O
14 | 1.7 nM | O=C1NC(=O)c2c1c1c3ccccc3n3c1c1c2c2ccccc2n1[C@@H]1O[C@H]3C[C@@H]1CO
15 | 0.5 nM | CNC(=O)[C@@H]1C[C@@H]2O[C@H]1n1c3ccccc3c3c4c(c5c6ccccc6n2c5c31)C(=O)NC4=O
16 | 58 nM | O=C1NC(=S)c2c1c1c3ccccc3n3c1c1c2c2ccccc2n1[C@H]1CC[C@@H]3O1
17 | 4 nM | CN(C)C[C@@H]1C[C@@H]2O[C@H]1n1c3ccccc3c3c4c(c5c6ccccc6n2c5c31)C(=O)NC4=O

molecular target: not listed separately; assay: Displacement of ATP from myosin light chain kinase

Row | Ki | Compound
18 | 0.7 nM | O=C1NC(=O)c2c1c1c3ccccc3n3c1c1c2c2ccccc2n1[C@@H]1O[C@H]3C[C@@H]1CO
